Ends that are not written are not given here.
How the values were obtained:
[1] = test system: anti-IDH1R132H antibody (H09); experiment: IDH1R132H and IDH1 wildtype peptide coated ELISA; assay type: binding, mouse; conditions: 10 μg peptide per well; H09 1:1000; OD at 450 nm (FIG. 1C)
Protocol: ELISA plates (Costar) were coated with IDH1R132H and IDH1wt p118-132, p120-134, p122-136, p124-138, p126-140, p128-142, p130-144, p132-146, p123-142 (10 μg per well in PBS), washed with PBS 0.05% Tween 20, and blocked with 3% FBS in PBS 0.05% Tween 20. As negative controls, MOG p35-55 was used at equal concentrations and peptide diluent PBS 10% DMSO was used at equal volume. As primary antibody monoclonal mouse anti-IDH1R132H (1:1000, H09, Dianova) was used. HRP-conjugated secondary antibody was sheep anti-mouse IgG (1:5000, Amersham). HLA-DRB1*01:01 MHC class II tetramer bound to IDH1R132H p123-142 and HLA-DRB1*01:01 MHC class II tetramer control tetramer bound to CLIP were kindly provided by NIH tetramer core facility and used 1:200 during pre-incubation with H09 for competitive ELISA. Substrate was TMB (ebioscience) and reaction was stopped with 1M H2SO4. OD at 450 nm was measured with an ELISA reader (Thermo Fisher).

[2] = target: HLA-DR in patients' glioma tissue; experiment: cell-based or functional assay

Substance | binding of anti-IDH1R132H antibody to coated peptide [1] | positivity in the IDH1R132H-MHC class II PLA system (glioma tissue, positivity set to 20 PLA signals per high power field) (of 9 IDH1R132H+ gliomas) [2]
WVKPIIIGHHAYGDQ [WVKPIIIGHHAYGDQ] | binds | 
KPIIIGHHAYGDQYR [KPIIIGHHAYGDQYR] | binds | 
GWVKPIIIGHHAYGDQYRAT (listed as Homo sapiens) [p123-p142] | binds | 
SGWVKPIIIGHHAYG [SGWVKPIIIGHHAYG] | binds | 
IDH1R132H (endogenous, in human glioma tissue) (from UniProt O75874 2-414) |  | 5
